Measured values from patent US4272437A, “Antibacterial agents, and 4-thio azetidinone intermediates” (priority 1979, dated 1981).
Values after ≈ are worked out from the molar mass of the structure shown. Like-named read-outs stand apart in the source and are kept apart here.

How the values were obtained:
Str. pyogenes A-9604 = experiment: MIC, tube dilution, Streptococcus pyogenes A9604; assay type: cell-based; conditions: Streptococcus pyogenes, A9604, Str. pyogenes A9604; overnight 37° C., Nutrient Broth; read-out: Minimum Inhibitory Concentration (M.I.C.)
Text: (§1) Representative compounds of the present invention were subjected to in vitro antibiotic screening against a variety of microorganisms.

E. coli A-20341-1 = experiment: MIC, tube dilution, Escherichia coli A20341-1; assay type: cell-based
Text: as §1

Ent. cloacae A-9656 = experiment: MIC, tube dilution, Enterobacter cloacae A9656; assay type: cell-based; conditions: overnight 37° C., read-out: Minimum Inhibitory Concentration (M.I.C.)
Text: as §1

Pr. mirabilis A-9900 = experiment: MIC, tube dilution, Proteus mirabilis A9900; assay type: cell-based; conditions: overnight 37° C.; for MIC: Proteus mirabilis, A9900, Proteus mirabilis A9900, read-out: Minimum Inhibitory Concentration (M.I.C.)
Text: as §1

Str. pneumoniae A-9585 = experiment: MIC, tube dilution, Streptococcus pneumoniae A9585; assay type: cell-based; conditions: Streptococcus pneumoniae, A9585, Str. pneumoniae A9585; overnight 37° C., Nutrient Broth; read-out: Minimum Inhibitory Concentration (M.I.C.)
Text: as §1

[1] = tested on: Providencia stuartii A21205; experiment: MIC, tube dilution, Providencia stuartii (Pr. rettgeri) A21205; assay type: cell-based; conditions: for MIC: Providencia stuartii
Text: as §1

K. pneumoniae A-15130 = experiment: MIC, tube dilution, Klebsiella pneumoniae A15130; assay type: cell-based; conditions: overnight 37° C.; for MIC: Klebsiella pneumoniae, A15130, K. pneumoniae A15130, read-out: Minimum Inhibitory Concentration (M.I.C.)
Text: as §1

Pr. morganii A-15153 = experiment: MIC, tube dilution, Proteus morganii A15153; assay type: cell-based; conditions: Morganella morganii, A15153, Proteus morganii A15153; overnight 37° C.; read-out: Minimum Inhibitory Concentration (M.I.C.)
Text: as §1

[2] = tested on: Klebsiella species A20468; experiment: MIC, tube dilution, Klebsiella species A20468; assay type: cell-based; conditions: Klebsiella species (K. pneumoniae) A20468; overnight 37° C.; read-out: Minimum Inhibitory Concentration (M.I.C.)
Text: as §1

E. coli A-15119 = experiment: MIC, tube dilution, Escherichia coli A15119; assay type: cell-based; conditions: overnight 37° C.; for MIC: Escherichia coli, A15119, E. coli A15119, read-out: Minimum Inhibitory Concentration (M.I.C.)
Text: as §1

Ps. aeruginosa A-9843A = experiment: MIC, tube dilution, Pseudomonas aeruginosa A9843A; assay type: cell-based; conditions: Pseudomonas aeruginosa, A9843A, read-out: Minimum Inhibitory Concentration (M.I.C.), Pseudomonas aeruginosa A9843A; overnight 37° C.
Text: as §1

Str. faecalis A-20688 = experiment: MIC, tube dilution, Streptococcus faecalis A20688; assay type: cell-based; conditions: Enterococcus faecalis, A20688, Str. faecalis A20688; overnight 37° C.; read-out: Minimum Inhibitory Concentration (M.I.C.)
Text: as §1

Staph. aureus A-9537 = experiment: MIC, tube dilution, Staphylococcus aureus A9537; assay type: cell-based; conditions: Staphylococcus aureus, A9537, Staph. aureus A9537; overnight 37° C., Nutrient Broth; read-out: Minimum Inhibitory Concentration (M.I.C.)
Text: as §1

Ent. cloacae A-9659 = experiment: MIC, tube dilution, Enterobacter cloacae A9659; assay type: cell-based; conditions: overnight 37° C.; for MIC: Enterobacter cloacae, A9659, Enterobacter cloacae A9659, read-out: Minimum Inhibitory Concentration (M.I.C.); for Minimum Inhibitory Concentration (M.I.C.): Enterobacter cloacae A9659
Text: as §1

Ser. marcescens A-20019 = experiment: MIC, tube dilution, Serratia marcescens A20019; assay type: cell-based; conditions: overnight 37° C.; for MIC: Serratia marcescens, A20019, Serratia marcescens A20019, read-out: Minimum Inhibitory Concentration (M.I.C.); for Minimum Inhibitory Concentration (M.I.C.): Serratia marcescens A20019
Text: as §1

Pr. vulgaris A-9716 = experiment: MIC, tube dilution, Proteus vulgaris / Proteus mirabilis A9716; assay type: cell-based, Proteus vulgaris (name changed to Proteus mirabilis); conditions: overnight 37° C.; for MIC: Proteus vulgaris
Text: as §1

[3] = tested on: Staph. aureus (Pen-Res) A-9606; experiment: MIC, tube dilution, Staphylococcus aureus A9606 (Pen-Res); assay type: cell-based; conditions: Staphylococcus aureus, overnight 37° C.
Text: as §1

[4] = tested on: Staph. aureus A-9537 and 50% serum; experiment: MIC, tube dilution, Staph. aureus A9537 + 50% serum; assay type: cell-based, Staphylococcus aureus; conditions: overnight 37° C.; for MIC: Staphylococcus aureus, read-out: Minimum Inhibitory Concentration (M.I.C.)
Text: as §1

Ps. aeruginosa A-21213 = experiment: MIC, tube dilution, Pseudomonas aeruginosa A21213; assay type: cell-based; conditions: overnight 37° C., read-out: Minimum Inhibitory Concentration (M.I.C.)
Text: as §1

[5] = tested on: Staph. aureus (Meth-Res) A-15097; experiment: MIC, tube dilution, Staphylococcus aureus A15097 (Meth-Res); assay type: cell-based; conditions: Staphylococcus aureus, overnight 37° C.
Text: as §1

[6] = Escherichia coli, A203411; E. coli A20341-1; overnight 37° C.; read-out: Minimum Inhibitory Concentration (M.I.C.)
[7] = A21205, Providencia stuartii (Pr. rettgeri) A21205, overnight 37° C., read-out: Minimum Inhibitory Concentration (M.I.C.)
[8] = A9716, Proteus vulgaris / Proteus mirabilis A9716, read-out: Minimum Inhibitory Concentration (M.I.C.)
[9] = Staph. aureus A9606 (Pen-Res), read-out: Minimum Inhibitory Concentration (M.I.C.)
[10] = Staph. aureus A15097 (Meth-Res), read-out: Minimum Inhibitory Concentration (M.I.C.)
[11] = Enterobacter cloacae, A9656, Enterobacter cloacae A9656
[12] = read-out: Minimum Inhibitory Concentration (M.I.C.), Staph. aureus A15097 (Meth-Res)

Structure (SMILES)	MIC (Str. pyogenes A-9604) [mg/L]	MIC (E. coli A-20341-1; [6]) [mg/L]	MIC (Ent. cloacae A-9656; Enterobacter cloacae A9656) [mg/L]	MIC (Pr. mirabilis A-9900) [mg/L]	MIC (Str. pneumoniae A-9585) [mg/L]	MIC [1, 7] [mg/L]	MIC (K. pneumoniae A-15130) [mg/L]	MIC (Pr. morganii A-15153) [mg/L]	MIC [2] [mg/L]	MIC (E. coli A-15119) [mg/L]	MIC (Ps. aeruginosa A-9843A) [mg/L]	MIC (Str. faecalis A-20688) [mg/L]	MIC (Staph. aureus A-9537) [mg/L]	MIC (Ent. cloacae A-9659) [mg/L]	MIC (Ser. marcescens A-20019) [mg/L]	MIC (Pr. vulgaris A-9716; [8]) [mg/L]	MIC [3, 9] [mg/L]	MIC [4] [mg/L]	MIC (Ps. aeruginosa A-21213; Pseudomonas aeruginosa A21213) [mg/L]	MIC [5, 10] [mg/L]	further results
O=C(O)C1=C(COc2ccccc2)S[C@@H]2CC(=O)N12 [Preparation 12, 2-Phenoxymethylpenem-3-carboxylic Acid]	0.5 (≈ 1.8 µM)	> 125	> 125	16 (≈ 57.7 µM)	0.5 (≈ 1.8 µM)	63 (≈ 227 µM)	> 125	16 (≈ 57.7 µM)	> 125	63 (≈ 227 µM)	> 125	63 (≈ 227 µM)	1 (≈ 3.61 µM)	> 125	> 125	16 (≈ 57.7 µM)	0.5 (≈ 1.8 µM)	> 63	> 125	1 (≈ 3.61 µM)	
O=C(O)C1=C(c2ccco2)SC2CC(=O)N12 (stereo not shown) [Preparation 13, 2-(2'-Furyl)penem-3-carboxylic Acid]	1 (≈ 4.22 µM)			4 (≈ 16.9 µM)	1 (≈ 4.22 µM)	4 (≈ 16.9 µM)	32 (≈ 135 µM)	32 (≈ 135 µM)	> 63	8 (≈ 33.7 µM)	> 63	32 (≈ 135 µM)	1 (≈ 4.22 µM)	63 (≈ 266 µM)	16 (≈ 67.4 µM)	4 (≈ 16.9 µM)	8 (≈ 33.7 µM)	> 32		16 (≈ 67.4 µM)	MIC (E. coli A-20341-1; Escherichia coli, A203411, E. coli A20341-1; overnight 37° C.; read-out: Minimum Inhibitory Concentration (M.I.C.)): > 63 mg/L; MIC (Ent. cloacae A-9656; [11]): 63 mg/L (≈ 266 µM); MIC (Ps. aeruginosa A-21213; Pseudomonas aeruginosa, A21213, Pseudomonas aeruginosa A21213): > 63 mg/L
O=C([O-])C1=C(COCc2ccccc2)S[C@@H]2CC(=O)N12.[Na+] [Preparation 14 (Na^+ Salt), Sodium 2-(Benzyloxymethyl)penem-3-carboxylate]	0.06	> 125	125	2	0.03		125	16	> 125	16	> 125	32	0.5	32	63			32	> 125		Minimum Inhibitory Concentration (M.I.C.) (Pr. mirabilis A-9900; Proteus mirabilis A9900): 1 µg/mL; MIC ([1]; A21205, read-out: Minimum Inhibitory Concentration (M.I.C.)): 63 mg/L; Minimum Inhibitory Concentration (M.I.C.) (K. pneumoniae A-15130; K. pneumoniae A15130): > 125 µg/mL; Minimum Inhibitory Concentration (M.I.C.) (E. coli A-15119; E. coli A15119): 8 µg/mL; Minimum Inhibitory Concentration (M.I.C.) (Ent. cloacae A-9659): 63 µg/mL; Minimum Inhibitory Concentration (M.I.C.) (Ser. marcescens A-20019): 125 µg/mL; Minimum Inhibitory Concentration (M.I.C.) (Pr. vulgaris A-9716; Proteus vulgaris / Proteus mirabilis A9716): 2 µg/mL; MIC (Pr. vulgaris A-9716; A9716, read-out: Minimum Inhibitory Concentration (M.I.C.), Proteus vulgaris / Proteus mirabilis A9716): 4 mg/L; MIC ([3]; read-out: Minimum Inhibitory Concentration (M.I.C.), Staph. aureus A9606 (Pen-Res)): 32 mg/L; Minimum Inhibitory Concentration (M.I.C.) [4]: 63 µg/mL; MIC [5, 12]: > 125 mg/L
CCCC1=C(C(=O)O)N2C(=O)C[C@H]2S1 [Preparation 15, 2-Propylpenem-3-carboxylic Acid]	8 (≈ 37.5 µM)	> 125	125 (≈ 586 µM)	16 (≈ 75 µM)	1 (≈ 4.69 µM)	16 (≈ 75 µM)	> 125	63 (≈ 295 µM)	> 125	16 (≈ 75 µM)	> 125	63 (≈ 295 µM)	1 (≈ 4.69 µM)	> 125	63 (≈ 295 µM)	16 (≈ 75 µM)	16 (≈ 75 µM)	> 63	> 125		MIC (Ent. cloacae A-9656; [11]): 63 mg/L (≈ 295 µM); Minimum Inhibitory Concentration (M.I.C.) ([1]; Providencia stuartii (Pr. rettgeri) A21205, overnight 37° C.): 32 µg/mL; Minimum Inhibitory Concentration (M.I.C.) (Ent. cloacae A-9659): 125 µg/mL; Minimum Inhibitory Concentration (M.I.C.) (Ser. marcescens A-20019): 125 µg/mL; MIC [5, 12]: 125 mg/L (≈ 586 µM)
